Tests used:
APRI and FIB-4 scores = test: Study 202 post-hoc APRI and FIB-4 fibrosis index scores; assay type: in vivo, human
Protocol: APRI and FIB-4 scores were calculated. Change in score category from baseline (BL) to Weeks 24 and 48 was assessed in patients with non-missing data. Correlations between changes from BL in APRI and FIB-4 scores, and MCP-1 (CCR2 ligand) and sCD14 (inflammatory biomarker) levels were evaluated.

HIV-1 = test: Study 202 Phase 2b: virologic response (HIV-1 RNA <50 copies/mL, FDA Snapshot); assay type: in vivo, human; conditions: EFV + FTC/TDF
Source text: Subjects with a history of HIV-2, hepatitis B and/or C, cirrhosis of the liver or any known active or chronic active liver disease were excluded from the study.
The primary efficacy endpoint was virologic response at Week 24, defined as HIV-1 RNA<50 copies/mL using the FDA Snapshot Algorithm.

[1] = Study 202: fasting metabolic laboratory parameters; assay type: in vivo; conditions: for Fasting HDL, mean change from baseline / Fasting LDL, mean change from baseline / Fasting total cholesterol, mean change from baseline / Fasting total cholesterol/HDL ratio, mean change from baseline / Fasting triglycerides, mean change from baseline / HOMA-IR, mean change from baseline / HbA1c, mean change from baseline: EFV
Source text: All abnormalities in total cholesterol, LDL cholesterol, triglycerides, or glucose were Grade 1 or Grade 2.
Mean baseline values and changes from baseline in HbA1c, HOMA-IR, fasting LDL, fasting HDL, fasting total cholesterol, fasting total cholesterol/HDL ratio, and fasting triglycerides are shown in Table 36.

[2] = Study 202: ECG abnormalities and vital signs; assay type: in vivo, human; conditions: All CVC (N = 115); EFV (N = 28), through Week 48
[3] = All CVC (N = 115), EFV (N = 28), through Week 48

O=C1Nc2ccc(Cl)cc2[C@@](C#CC2CC2)(C(F)(F)F)O1 [EFV, efavirenz, reference compound]
Patients in APRI category 0.5-1.5 (APRI and FIB-4 scores; Baseline): 4%
Patients in FIB-4 category <1.45 (APRI and FIB-4 scores; Baseline): 100%
Patients in APRI category <0.5 (APRI and FIB-4 scores; Baseline, CVC pooled 100/200 mg or EFV): 96%
Patients in APRI category <0.5 (APRI and FIB-4 scores; Week 24): 100%
Patients in FIB-4 category <1.45 (APRI and FIB-4 scores; Week 24): 100%
Patients with APRI decreased 1 category from baseline (APRI and FIB-4 scores; Week 24): 5%
Patients in APRI category <0.5 (APRI and FIB-4 scores; Week 48): 100%
Patients in FIB-4 category 1.45-3.25 (APRI and FIB-4 scores; Week 48): 6%
Patients in FIB-4 category <1.45 (APRI and FIB-4 scores; Week 48): 94%
Patients with APRI decreased 1 category from baseline (APRI and FIB-4 scores; Week 48): 6%
Virologic success (HIV-1 RNA <50 copies/mL) (HIV-1; Week 24): 71%
Virologic success (HIV-1 RNA <50 copies/mL) (HIV-1; Week 48): 50%
Any graded (Grade 1-4) fasting laboratory abnormality, n subjects [1, 3]: 9
Fasting LDL cholesterol abnormality, any grade, n subjects [1, 3]: 6
Fasting LDL cholesterol, worst Grade 1, n subjects [1, 3]: 3
Fasting LDL cholesterol, worst Grade 2, n subjects [1, 3]: 3
Fasting LDL cholesterol, worst Grade 3, n subjects [1, 3]: 0
Fasting LDL cholesterol, worst Grade 4, n subjects [1, 3]: 0
Fasting glucose (serum, high) abnormality, any grade, n subjects [1, 3]: 2
Fasting glucose (serum, high), worst Grade 1, n subjects [1, 3]: 2
Fasting glucose (serum, high), worst Grade 2, n subjects [1, 3]: 0
Fasting glucose (serum, high), worst Grade 3, n subjects [1, 3]: 0
Fasting glucose (serum, high), worst Grade 4, n subjects [1, 3]: 0
Fasting laboratory abnormality, worst Grade 1, n subjects [1, 3]: 6
Fasting laboratory abnormality, worst Grade 2, n subjects [1, 3]: 3
Fasting laboratory abnormality, worst Grade 3, n subjects [1, 3]: 0
Fasting laboratory abnormality, worst Grade 4, n subjects [1, 3]: 0
Fasting total cholesterol abnormality, any grade, n subjects [1, 3]: 9
Fasting total cholesterol, worst Grade 1, n subjects [1, 3]: 6
Fasting total cholesterol, worst Grade 2, n subjects [1, 3]: 3
Fasting total cholesterol, worst Grade 3, n subjects [1, 3]: 0
Fasting total cholesterol, worst Grade 4, n subjects [1, 3]: 0
Fasting triglycerides abnormality, any grade, n subjects [1, 3]: 0
Fasting triglycerides, worst Grade 1, n subjects [1, 3]: 0
Fasting triglycerides, worst Grade 2, n subjects [1, 3]: 0
Fasting triglycerides, worst Grade 3, n subjects [1, 3]: 0
Fasting triglycerides, worst Grade 4, n subjects [1, 3]: 0
Fasting HDL, mean change from baseline ([1]; Week 4, All CVC): 5.90 mg/dL
Fasting LDL, mean change from baseline ([1]; Week 4, All CVC): 8.62 mg/dL
Fasting total cholesterol, mean change from baseline ([1]; Week 4, All CVC): 19 mg/dL
Fasting total cholesterol/HDL ratio, mean change from baseline ([1]; Week 4, All CVC): −0.07
Fasting triglycerides, mean change from baseline ([1]; Week 4, All CVC): 23 mg/dL
HOMA-IR, mean change from baseline ([1]; Week 4, All CVC): 0.30
HbA1c, mean change from baseline ([1]; Week 4, All CVC): −0.01 % Hb
Fasting HDL, mean change from baseline ([1]; Week 12, All CVC): 9.45 mg/dL
Fasting LDL, mean change from baseline ([1]; Week 12, All CVC): 7.59 mg/dL
Fasting total cholesterol, mean change from baseline ([1]; Week 12, All CVC): 18 mg/dL
Fasting total cholesterol/HDL ratio, mean change from baseline ([1]; Week 12, All CVC): −0.41
Fasting triglycerides, mean change from baseline ([1]; Week 12, All CVC): 3 mg/dL
HOMA-IR, mean change from baseline ([1]; Week 12, All CVC): 0.06
HbA1c, mean change from baseline ([1]; Week 12, All CVC): −0.07 % Hb
Fasting HDL, mean change from baseline ([1]; Week 24, All CVC): 12.75 mg/dL
Fasting LDL, mean change from baseline ([1]; Week 24, All CVC): 13.40 mg/dL
Fasting total cholesterol, mean change from baseline ([1]; Week 24, All CVC): 24 mg/dL
Fasting total cholesterol/HDL ratio, mean change from baseline ([1]; Week 24, All CVC): −0.47
Fasting triglycerides, mean change from baseline ([1]; Week 24, All CVC): -10 mg/dL
HOMA-IR, mean change from baseline ([1]; Week 24, All CVC): −1.27
HbA1c, mean change from baseline ([1]; Week 24, All CVC): −0.01 % Hb
Fasting HDL, mean change from baseline ([1]; Week 48, All CVC): 11.94 mg/dL
Fasting LDL, mean change from baseline ([1]; Week 48, All CVC): 11.19 mg/dL
Fasting total cholesterol, mean change from baseline ([1]; Week 48, All CVC): 26 mg/dL
Fasting total cholesterol/HDL ratio, mean change from baseline ([1]; Week 48, All CVC): −0.35
Fasting triglycerides, mean change from baseline ([1]; Week 48, All CVC): 14 mg/dL
HOMA-IR, mean change from baseline ([1]; Week 48, All CVC): −0.12
HbA1c, mean change from baseline ([1]; Week 48, All CVC): −0.08 % Hb
Change in fasting cholesterol (total, LDL, HDL) during treatment ([1]; through Week 48): increases were observed
HR Abnormally high, n subjects [2]: 0
HR Abnormally low, n subjects [2]: 0
PR Abnormally high, n subjects [2]: 1
QRS Abnormally high, n subjects [2]: 0
QRS Abnormally low, n subjects [2]: 0
QTcB interval Borderline (450-480 ms), n subjects [2]: 3
QTcB interval Increase by >30-60 ms, n subjects [2]: 4
QTcB interval Increase by >60 ms, n subjects [2]: 0
QTcB interval Pathologically prolonged, n subjects [2]: 0
QTcB interval Prolonged, n subjects [2]: 0
QTcF interval Borderline (450-480 ms), n subjects [2]: 0
QTcF interval Increase by >30-60 ms, n subjects [2]: 4
QTcF interval Increase by >60 ms, n subjects [2]: 0
QTcF interval Pathologically prolonged, n subjects [2]: 0
QTcF interval Prolonged, n subjects [2]: 0
